Converted amounts (≈) assume the structure as drawn. Read-outs that look alike come from different tables or passages of the source.
Legend:
E. coli = assay: MIC against gram-negative bacteria; format: cell-based
Text: Agents Chemother. 2003, 47:1496-1502.

[1] = test system: clinical methicillin resistant Staphylococcus aureus (MRSA) isolates; assay: MIC against clinical MRSA isolates, LB microdilution assay
Description: Activity was assessed by determination of minimal inhibitory concentrations (MIC), as described in Pfister et al., Antimicrob. […] Cultures from single colonies were grown in LB medium and used for MIC tests in a microtiter plate format. Starting cultures contained 200 μl of bacterial cells at an optical density of 0.025 at 600 nm, and the respective drug was added in twofold series of dilution.

[2] = test system: Cochlear explants from newborn mice; assay: Cochleatoxicity in vitro, hair cell loss in cochlear explants; format: cell-based
Description: FIG. 1: Cochleatoxicity in vitro
(a) Dose-response relationship of drug-induced hair cell loss in cochlear explants. Hair cell loss was quantified along the entire length of the explant and plotted against drug concentration. %=% outer hair cells missing.
Cochlear explants from newborn mice were treated with 0.5 mM aminoglycoside compound for 24 h; subsequently hair cell damage was assessed by epifluorescence microscopy.

[3] = General toxicity in guinea pigs; format: in vivo; conditions: systemic, once daily for 14 days, monitored additional 14 days
Description: Guinea pigs received a systemic application of aminoglycosides once daily in the dosing indicated in Table 9 for 14 days and were then monitored for an additional 14 days.

bacterial ribosomes = assay: Ribosomal drug susceptibility (MIC) of recombinant bacteria; set-up: MIC, bacterial ribosomes: unit not given beside the values; conditions: for MIC, wild type bacteria: Table 10
mitohybrid ribosomes = assay: as above; set-up: MIC, mitohybrid ribosomes: unit not given beside the values; conditions: for MIC, bacteria with mitohybrid ribosome: Table 10
cytohybrid ribosomes = assay: as above; set-up: MIC, cytohybrid ribosomes: unit not given beside the values; conditions: for MIC, bacteria with cytohybrid ribosome: Table 10
[4] = Escherichia coli, E. coli AG02, clin. isol (Gm^S), read-out: MIC
[5] = Escherichia coli, E. coli AG03, clin. isol (Gm^R), read-out: MIC
[6] = Escherichia coli, E. coli AG06, BM13, read-out: MIC
[7] = Escherichia coli, E. coli AG07, BM13/pIP135, resistance mechanism AAC(3), read-out: MIC
[8] = Escherichia coli, E. coli AG08, BM13/pIP055, resistance mechanism ANT(2″), read-out: MIC
[9] = Escherichia coli, E. coli AG09, AAC(6′)-1B, resistance mechanism AAC(6′), read-out: MIC
[10] = Escherichia coli, E. coli AG36, HB101/pAT197, resistance mechanism ANT(4′), read-out: MIC
[11] = Escherichia coli, E. coli AG37, HB101/pAG21-1, resistance mechanism APH(3′), read-out: MIC
[12] = Staphylococcus aureus, MRSA, MRSA AG038, strain 70-26S Gm^S
[13] = Staphylococcus aureus, MRSA, MRSA AG041, strain 98-25S Gm^S
[14] = Staphylococcus aureus, MRSA, MRSA AG043, strain 01-08R Gm^R
[15] = Staphylococcus aureus, MRSA, MRSA AG044, strain 07-12R Gm^R
[16] = Staphylococcus aureus, MRSA, MRSA AG045, strain 08-12R Gm^R
[17] = Staphylococcus aureus, MRSA, MRSA AG053, strain 56-06R Gm^R

NC[C@@H]1O[C@H](O[C@H]2[C@@H](O)[C@H](O[C@@H]3[C@@H](O)[C@H](N)C[C@H](N)[C@H]3O[C@H]3O[C@H](CO)[C@@H](O)[C@H](O)[C@H]3N)O[C@@H]2CO)[C@H](N)[C@@H](O)[C@@H]1O [Paromomycin]
MIC (E. coli; Escherichia coli, E. coli AG01, clin. isol. (Gm^S), read-out: MIC): 16 to 32 µg/mL (≈ 26 to 52 µM) | MIC (E. coli; [4]): 8 to 16 µg/mL (≈ 13 to 26 µM) | MIC (E. coli; [5]): 8 to 16 µg/mL (≈ 13 to 26 µM) | MIC (E. coli; [6]): 2 µg/mL (≈ 3.25 µM) | MIC (E. coli; [7]): 8 µg/mL (≈ 13 µM) | MIC (E. coli; [8]): 4 to 8 µg/mL (≈ 6.5 to 13 µM) | MIC (E. coli; [9]): 8 to 16 µg/mL (≈ 13 to 26 µM) | MIC (E. coli; [10]): 256 µg/mL (≈ 416 µM) | MIC (E. coli; [11]): > 256 µg/mL | MIC ([1]; MRSA AG040, strain 87-26S Gm^S): >256 µg/mL | MIC ([1]; MRSA AG046, strain 12-06R Gm^R): >256 µg/mL | MIC ([1]; MRSA AG047, strain 18-06R Gm^R): >256 µg/mL | MIC ([1]; MRSA AG048, strain 20-06R Gm^R): >256 µg/mL | MIC ([1]; MRSA AG049, strain 23-12R Gm^R): >256 µg/mL | MIC ([1]; MRSA AG050, strain 31-06R Gm^R): >256 µg/mL | MIC ([1]; MRSA AG051, strain 36-06R Gm^R): >256 µg/mL | MIC ([1]; MRSA AG052, strain 53-14I Gm^R): >256 µg/mL | MIC ([1]; Staphylococcus aureus, MRSA): > 256 µg/mL | MIC [1, 12]: 2 to 4 µg/mL (≈ 3.25 to 6.5 µM) | MIC [1, 13]: 4 µg/mL (≈ 6.5 µM) | MIC [1, 14]: 4 to 8 µg/mL (≈ 6.5 to 13 µM) | MIC [1, 15]: 2 to 4 µg/mL (≈ 3.25 to 6.5 µM) | MIC [1, 16]: 4 µg/mL (≈ 6.5 µM) | MIC [1, 17]: 2 to 4 µg/mL (≈ 3.25 to 6.5 µM)

CN[C@@H]1[C@@H](O)[C@@H](O[C@@H]2[C@@H](O)[C@H](O[C@H]3OC(CN)=CC[C@H]3N)[C@@H](N)C[C@H]2N)OC[C@]1(C)O [Sisomicin]
MIC (E. coli; [4]): 1 µg/mL (≈ 2.23 µM) | MIC (E. coli; [5]): 32 to 128 µg/mL (≈ 71.5 to 286 µM) | MIC (E. coli; [6]): 0.25 µg/mL (≈ 0.559 µM) | MIC (E. coli; [7]): 16 µg/mL (≈ 35.8 µM) | MIC (E. coli; [8]): 8 µg/mL (≈ 17.9 µM) | MIC (E. coli; [9]): 16 µg/mL (≈ 35.8 µM) | MIC (E. coli; [10]): 0.25 µg/mL (≈ 0.559 µM) | MIC (E. coli; [11]): 0.125 µg/mL (≈ 0.279 µM) | MIC [1, 12]: 0.25 µg/mL (≈ 0.559 µM) | MIC ([1]; Staphylococcus aureus, MRSA, MRSA AG040, strain 87-26S Gm^S): 0.25 µg/mL (≈ 0.559 µM) | MIC [1, 13]: 0.25 µg/mL (≈ 0.559 µM) | MIC ([1]; Staphylococcus aureus, MRSA, MRSA AG042, strain 101-06R Gm^R): 32 µg/mL (≈ 71.5 µM) | MIC [1, 14]: 32 to 64 µg/mL (≈ 71.5 to 143 µM) | MIC [1, 15]: 8 µg/mL (≈ 17.9 µM) | MIC [1, 16]: 4 to 8 µg/mL (≈ 8.94 to 17.9 µM) | MIC ([1]; Staphylococcus aureus, MRSA, MRSA AG046, strain 12-06R Gm^R): > 256 µg/mL | MIC ([1]; Staphylococcus aureus, MRSA, MRSA AG047, strain 18-06R Gm^R): > 256 µg/mL | MIC ([1]; Staphylococcus aureus, MRSA, MRSA AG048, strain 20-06R Gm^R): > 256 µg/mL | MIC ([1]; Staphylococcus aureus, MRSA, MRSA AG049, strain 23-12R Gm^R): 8 µg/mL (≈ 17.9 µM) | MIC ([1]; Staphylococcus aureus, MRSA, MRSA AG050, strain 31-06R Gm^R): 128 to 256 µg/mL (≈ 286 to 572 µM) | MIC ([1]; Staphylococcus aureus, MRSA, MRSA AG051, strain 36-06R Gm^R): 64 µg/mL (≈ 143 µM) | MIC ([1]; Staphylococcus aureus, MRSA, MRSA AG052, strain 53-14I Gm^R): 8 µg/mL (≈ 17.9 µM) | MIC [1, 17]: 32 µg/mL (≈ 71.5 µM)

Gentamicin
MIC (E. coli; E. coli AG01, clin. isol. (Gm^S)): 4 to 8 µg/mL | MIC (E. coli; E. coli AG02, clin. isol (Gm^S)): 2 µg/mL | MIC (E. coli; E. coli AG03, clin. isol (Gm^R)): 256 to 512 µg/mL | MIC (E. coli; E. coli AG06, BM13): 0.5 µg/mL | MIC (E. coli; E. coli AG08, BM13/pIP055, resistance mechanism ANT(2″)): 16 µg/mL | MIC (E. coli; E. coli AG09, AAC(6′)-1B, resistance mechanism AAC(6′)): 8 to 16 µg/mL | MIC (E. coli; E. coli AG36, HB101/pAT197, resistance mechanism ANT(4′)): 0.5 µg/mL | MIC (E. coli; E. coli AG37, HB101/pAG21-1, resistance mechanism APH(3′)): 0.25 µg/mL | Hair cell count ([2]; 0.5 mM aminoglycoside for 24 h, epifluorescence microscopy): almost all hair cells (inner and outer) missing | inner and outer hair cells missing / lost ([2]; 0.5 mM, FIG. 1): > 80% | observations (general toxicity) ([3]; 120 mg/kg base): normal weight gain | observations (general toxicity) ([3]; 140 mg/kg base): significant weight loss | observations (general toxicity) ([3]; 160 mg/kg base): 2 out of 3 died | MIC ([1]; MRSA AG038, strain 70-26S Gm^S): 0.5 µg/mL | MIC ([1]; MRSA AG040, strain 87-26S Gm^S): 0.5 µg/mL | MIC ([1]; MRSA AG041, strain 98-25S Gm^S): 0.5 µg/mL | MIC ([1]; MRSA AG042, strain 101-06R Gm^R): 32 to 64 µg/mL | MIC ([1]; MRSA AG043, strain 01-08R Gm^R): 32 to 64 µg/mL | MIC ([1]; MRSA AG044, strain 07-12R Gm^R): 16 µg/mL | MIC ([1]; MRSA AG045, strain 08-12R Gm^R): 16 µg/mL | MIC ([1]; MRSA AG046, strain 12-06R Gm^R): ≧256 mg/l | MIC ([1]; MRSA AG047, strain 18-06R Gm^R): ≧256 mg/l | MIC ([1]; MRSA AG048, strain 20-06R Gm^R): ≧256 mg/l | MIC ([1]; MRSA AG049, strain 23-12R Gm^R): 16 µg/mL | MIC ([1]; MRSA AG050, strain 31-06R Gm^R): 128 µg/mL | MIC ([1]; MRSA AG051, strain 36-06R Gm^R): 128 µg/mL | MIC ([1]; MRSA AG052, strain 53-14I Gm^R): 16 to 32 µg/mL | MIC ([1]; MRSA AG053, strain 56-06R Gm^R): 64 µg/mL | MIC, bacterial ribosomes (bacterial ribosomes; Table 7, 72 h incubation): 1 | MIC, mitohybrid ribosomes (mitohybrid ribosomes; Table 7, 72 h incubation): 128 | MIC, cytohybrid ribosomes (cytohybrid ribosomes; Table 7, 72 h incubation): 1024

CC(=O)O.CC(=O)O.CC(=O)O.CC(=O)O.CN[C@@H]1[C@@H](O[C@H]2O[C@H](CO)[C@@H](N)[C@H](O)[C@H]2O)O[C@H]2C[C@@H](NC(=O)[C@@H](O)CCN)[C@@H](O[C@H]3[C@H](O)[C@@H](O)[C@H](N)C[C@@H]3N)O[C@@H]2[C@@H]1O [ETH 100, 2′-N-[(2S)-4-Amino-2-hydroxybutyryl]apramycin tetraacetate]
MIC, wild type bacteria (bacterial ribosomes): 2.0 to 4.0 µg/mL | MIC, bacteria with mitohybrid ribosome (mitohybrid ribosomes): >256.0 µg/mL | MIC, bacteria with cytohybrid ribosome (cytohybrid ribosomes): >256.0 µg/mL

CC(=O)O.CC(=O)O.CC(=O)O.CC(=O)O.CNC1C(OC2OC(CO)C(N)C(O)C2O)OC2CC(NC(=O)C(O)CCN3C(=O)c4ccccc4C3=O)C(OC3C(N)CC(N)C(O)C3O)OC2C1O (stereo not drawn) [ETH 103]
MIC, wild type bacteria (bacterial ribosomes): 8.0 µg/mL | MIC, bacteria with mitohybrid ribosome (mitohybrid ribosomes): >256.0 µg/mL | MIC, bacteria with cytohybrid ribosome (cytohybrid ribosomes): >256.0 µg/mL

Reference: patent US9271993B2, “Treatment of bacterial infectious diseases” (priority 2010, dated 2016)
